≈ marks a conversion by molar mass, not a printed value. Where “and” joins values, the source holds several entries; their conditions need not be identical. Equal values may be shown once. Entries after “also recorded” stand apart in the source; their conditions may differ. Read-outs that look alike come from different tables or passages of the source.
Key:
Mtb H37RvMA = assay: microbe, parasite or virus in culture; type: cell-based; settings: Middlebrook 7H9/glycerol/ADC/tween-80
[1] = biological target: HadA, HadB, BCG_0547c (HadD) (Mycobacterium bovis BCG, UniProt I6WYY7+P9WFK1); assay: biochemical; type: binding; settings: for competition from the bead matrices, HadA, HadB and HadD: at 0.49 μM, n = 3
BCG_2231 (DlaT, Rv2215) = BCG_2231 (DlaT, Rv2215) (Mycobacterium bovis, UniProt P65634); assay: biochemical; type: binding, Mycobacterium bovis BCG
[2] = biological target: T1, BCG_0628c (lpqN, Rv0583c) (Mycobacterium tuberculosis, UniProt O53780); assay: biochemical; type: binding, Mycobacterium bovis BCG
T1 sequence (O53780 20-228): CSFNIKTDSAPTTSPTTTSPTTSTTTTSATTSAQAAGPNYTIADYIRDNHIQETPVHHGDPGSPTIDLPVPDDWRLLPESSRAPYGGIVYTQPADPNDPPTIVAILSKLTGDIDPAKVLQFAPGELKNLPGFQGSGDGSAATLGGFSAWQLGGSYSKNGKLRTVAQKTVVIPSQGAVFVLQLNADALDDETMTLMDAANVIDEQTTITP

Mtb HadAB = Mtb HadAB (Mycobacterium tuberculosis, UniProt I6WYY7+P9WFK1); assay: biochemical; settings: trans-2-C16:1-CoA 60 μM, mean ± SD of duplicate assays
Mtb = type: cell-based, Mycobacterium tuberculosis
HepG2 = HepG2 cytotoxicity; settings: Homo sapiens
Mtb H37Rv = assay: microbe, parasite or virus in culture; type: cell-based; settings: Mycobacterium tuberculosis
Mtb HadBC = type: biochemical; settings: compound 50 μM, HadBC 130 nM, trans-2-C16:1-CoA 25 μM
Mtb H37Rv mc^26206 = assay: microbe, parasite or virus in culture; type: cell-based; settings: Mycobacterium tuberculosis, read-out: MIC Mtb WT
[3] = tested on: mycolic acid biosynthesis in Mtb H37Rv mc^26206; type: cell-based; settings: 3× MIC, 24 h
[4] = HepG2, read-out: HepG2 IC50 (galactose)
[5] = HepG2, read-out: HepG2 IC50 (glucose)

Row | SMILES | IC50 (Mtb HadAB; HadAB IC50, HadAB 22 nM) | Mtb pMIC99 (Mtb) | MIC (Mtb H37Rv; read-out: Mtb MIC) [µM] | HadBC % inhibition at 50 μM (Mtb HadBC) | MIC (Mtb H37Rv mc^26206) [µM] | further results
1 | CS(=O)(=O)NC(=O)CCc1cn(-c2ccc(Br)cc2)nc1-c1ccncc1 [Compound 1] | 0.1 ± 0.01 µM | 6.2 |  |  |  | Compound 1 MIC, H37RvMA (WT reference strain) (Mtb H37RvMA): 1.9 µM; MIC (Mtb H37RvMA; Mycobacterium tuberculosis, H37RVMA, read-out: Compound 1 MIC, H37RvMA (WT reference strain)): 1.9 µM (≈ 0.854 µg/mL); IC50 [1]: < 0.16 µM; competition from the bead matrices, HadA, HadB and HadD [1]: 91–92%; Kd (BCG_2231 (DlaT, Rv2215)): 1 µM; Kd [2]: 1.8 µM; solubility (physchem): 190 µM (≈ 85.4 µg/mL); IC50 (HepG2; [4]): > 50 µM; IC50 (HepG2; [5]): > 50 µM
2 | CS(=O)(=O)NC(=O)CCc1cn(-c2ccc(Cl)cc2)nc1-c1ccc(Cl)cc1 [Compound 2] | 0.13 ± 0.02 µM | 5.5 | 4.7 (≈ 2.06 µg/mL) | did not inhibit; also recorded: No inhibition | < 0.625 | MIC (Mtb H37Rv; read-out: Mtb MIC (Middlebrook 7H9/DPCC/casitone/Tx)): 0.8 µM (≈ 0.351 µg/mL); MIC (Mtb H37Rv; read-out: Mtb MIC (Middlebrook 7H9/DPPC/cholesterol/BSA/Tx)): 4.7 µM (≈ 2.06 µg/mL); MIC (Mtb H37Rv; read-out: Mtb MIC (Middlebrook 7H9/casitone/Tx)): 0.6 µM (≈ 0.263 µg/mL); MIC (Mtb H37Rv; read-out: Mtb MIC (Middlebrook 7H9/glucose/BSA/Tx)): 4.7 µM (≈ 2.06 µg/mL); IC50 [1]: < 0.49 µM; competition from the bead matrices, HadA, HadB and HadD [1]: 56–62%; Kd (BCG_2231 (DlaT, Rv2215)): 6.6 µM; solubility (physchem): 100 µM (≈ 43.8 µg/mL); IC50 (HepG2; [4]): > 50 µM; IC50 (HepG2; [5]): > 50 µM
3 | CS(=O)(=O)NC(=O)CCc1cn(-c2ccc(Cl)cc2)nc1-c1ccc(C#CCN)cc1 [Compound 4] |  | 5.4 |  |  |  | 
4 | CS(=O)(=O)NC(=O)CCc1cn(-c2ccc(Br)cc2)nc1-c1ccc(Cl)cc1 [Compound 9] |  |  |  |  |  | IC50 (Mtb HadAB; HadAB 22 nM, read-out: HadAB IC50): 0.03 ± 0.01 µM
5 | O=C(O)CCc1cn(-c2ccc(Br)cc2)nc1-c1ccc(Cl)cc1 [Compound 10] | 3.3 ± 1.7 µM |  | > 50 | No inhibition | 1.5 (≈ 0.609 µg/mL) | 
6 | CS(=O)(=O)NC(=O)NCc1cn(-c2ccc(C(F)(F)F)nc2)nc1-c1ccncc1 [Compound 11] | 0.062 µM and 0.06 µM |  |  |  | 0.625 (≈ 0.275 µg/mL) | 
7 | O=c1[nH]nc(CCc2cn(-c3ccc(Br)cc3)nc2-c2ccc(Cl)cc2)o1 [Compound 12] | 4.24 µM and 4.2 µM |  | 19 (≈ 8.47 µg/mL) |  | 3.12 (≈ 1.39 µg/mL) | 
8 | CS(=O)(=O)c1nnc(Cc2cn(-c3ccc(Cl)cc3)nc2-c2ccncc2)o1 [Compound 13] | 102 ± 17 µM |  | 62.5 (≈ 26 µg/mL) | 37±5% | 3.75 (≈ 1.56 µg/mL) | inhibition of biosynthesis of mycolic acids [3]: 0–49%
9 | CS(=O)(=O)NC(=O)NCc1cc(-c2ccc(Br)cc2)oc1-c1ccncc1 [Compound 14] | 0.02 ± 0.01 µM |  |  |  | < 0.243 | 
10 | CCc1c(COC(=O)NS(C)(=O)=O)c(-c2ccc(Cl)cc2)nn1-c1ccc(Cl)cc1 [Compound 15] | 28 µM |  | > 50 | No inhibition | 3.9 (≈ 1.83 µg/mL) | 

From paper PMC9673142, “1,3-Diarylpyrazolyl-acylsulfonamides Target HadAB/BC Complex in Mycobacterium tuberculosis” (ACS Infectious Diseases, 2022)
